Source: patent US8952024B2, “Herbicidal pyrimidone derivatives” (E I du Pont de Nemours and Company, priority 2009, dated 2015)

What was measured:
Type in all cases: in vivo
[1] = tested on: bermudagrass (Cynodon dactylon); assay: Test B pre-/postemergence plant response
In short: (§1)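 Plants treated either at seeding (loam/sand soil) or postemergence at 2 to 18 cm height, using a surfactant-containing non-phytotoxic solvent formulation. Evaluation was visual after 13 to 15 days, 0 to 100 scale relative to controls.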

[2] = tested on: blackgrass (Alopecurus myosuroides); assay: Test B pre-/postemergence plant response
In short: as §1

[3] = tested on: cocklebur (Xanthium strumarium); assay: Test B pre-/postemergence plant response
In short: as §1

[4] = tested on: downy bromegrass (Bromus tectorum); assay: Test B pre-/postemergence plant response
In short: as §1

[5] = tested on: giant foxtail (Setaria faberii); assay: Test B pre-/postemergence plant response
In short: as §1

[6] = tested on: green foxtail (Setaria viridis); assay: Test B pre-/postemergence plant response
In short: as §1

[7] = tested on: johnsongrass (Sorghum halepense); assay: Test B pre-/postemergence plant response
In short: as §1

kochia (Kochia scoparia) = assay: Test B pre-/postemergence plant response
In short: as §1

[8] = tested on: morningglory (Ipomoea coccinea); assay: Test B pre-/postemergence plant response
In short: as §1

[9] = tested on: ragweed (common ragweed, Ambrosia elatior); assay: Test B pre-/postemergence plant response
In short: as §1

soybean (Glycine max) = assay: Test B pre-/postemergence plant response
In short: as §1

[10] = tested on: velvetleaf (Abutilon theophrasti); assay: Test B pre-/postemergence plant response
In short: as §1

[11] = tested on: wheat (Triticum aestivum); assay: Test B pre-/postemergence plant response
In short: as §1

wild oat (Avena fatua) = assay: Test B pre-/postemergence plant response
In short: as §1

[12] = tested on: yellow nutsedge (Cyperus esculentus); assay: Test B pre-/postemergence plant response
In short: as §1

[13] = tested on: canarygrass (Phalaris minor); assay: Test B postemergence plant response
In short: (§2)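 Plants at the 1- to 4-leaf stage (2 to 18 cm tall), grown in pots of peat moss/vermiculite medium with wetting agent and starter nutrients, received postemergence applications of test chemicals. After 13 to 15 days in a greenhouse, injury was rated visually against untreated controls on a 0 (no effect) to 100 (complete control) scale.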

[14] = tested on: chickweed (Stellaria media); assay: Test B postemergence plant response
In short: as §2

[15] = tested on: windgrass (Apera spica-venti); assay: Test B postemergence plant response
In short: as §2

[16] = 31 g ai/ha, postemergence, scale 0 to 100, 0 is no effect, 100 is complete control
[17] = 62 g ai/ha, postemergence, 0 is no effect, 100 is complete control, 13 to 15 days
[18] = Postemergence, 125 g ai/ha, visual rating after 13 to 15 days, scale 0 (no effect) to 100 (complete control)
[19] = Postemergence, 250 g ai/ha, scale 0 to 100 (0 no effect, 100 complete control)

In the case of CCOCCn1c(-c2ccccc2)ncc(C(=O)C2=C(O)CCCC2=O)c1=O [Compound 96], the “Plant response rating, Bermudagrass” value [1, 16] is reported as 80, the “Bermudagrass plant response rating (0 to 100 scale)” value [1, 17] is reported as 95 and the “Plant response rating, Bermudagrass” value [1, 18] is reported as 95. The “Plant response rating, Bermudagrass” value [1, 19] was 98, the “Plant response rating, Blackgrass” value [2, 16] was 5 and the “Blackgrass plant response rating (0 to 100 scale)” value [2, 17] was 20. For the same compound, the “Plant response rating, Blackgrass” value [2, 18] was 30, the “Plant response rating, Blackgrass” value [2, 19] was 40 and the “Plant response rating, Cocklebur” value [3, 16] was 75. For the same compound, the “Cocklebur plant response rating (0 to 100 scale)” value [3, 17] was 95, the “Plant response rating, Cocklebur” value [3, 18] was 98 and the “Plant response rating, Cocklebur” value [3, 19] was 100. The “Plant response rating, Bromegrass, Downy” value [4, 16] was 0, the “Bromegrass, Downy plant response rating (0 to 100 scale)” value [4, 17] was 0 and the “Plant response rating, Bromegrass, Downy” value [4, 18] was 5. For the same compound, the “Plant response rating, Bromegrass, Downy” value [4, 19] was 10, the “Plant response rating, Foxtail, Giant” value [5, 16] was 65 and the “Foxtail, Giant plant response rating (0 to 100 scale)” value [5, 17] was 70. For the same compound, the “Plant response rating, Foxtail, Giant” value [5, 19] was 85, the “Plant response rating, Foxtail, Green” value [6, 16] was 50 and the “Foxtail, Green plant response rating (0 to 100 scale)” value [6, 17] was 65. The “Plant response rating, Foxtail, Green” value [6, 19] was 85, the “Plant response rating, Johnsongrass” value [7, 16] was 20 and the “Johnsongrass plant response rating (0 to 100 scale)” value [7, 17] was 45. The “Plant response rating, Johnsongrass” value [7, 19] was 80, the “Plant response rating, Kochia” value (kochia (Kochia scoparia); [16]) was 65 and the “Kochia plant response rating (0 to 100 scale)” value (kochia (Kochia scoparia); [17]) was 85. For the same compound, the “Plant response rating, Kochia” value (kochia (Kochia scoparia); [19]) was 100, the “Plant response rating, Morningglory” value [8, 16] was 65 and the “Morningglory plant response rating (0 to 100 scale)” value [8, 17] was 95. For the same compound, the “Plant response rating, Morningglory” value [8, 19] was 100, the “Plant response rating, Ragweed” value [9, 16] was 80 and the “Ragweed plant response rating (0 to 100 scale)” value [9, 17] was 80. For the same compound, the “Plant response rating, Ragweed” value [9, 19] was 95, the “Plant response rating, Soybean” value (soybean (Glycine max); [16]) was 65 and the “Soybean plant response rating (0 to 100 scale)” value (soybean (Glycine max); [17]) was 75. The “Plant response rating, Soybean” value (soybean (Glycine max); [19]) was 98, the “Plant response rating, Velvetleaf” value [10, 16] was 95 and the “Velvetleaf plant response rating (0 to 100 scale)” value [10, 17] was 98. For the same compound, the “Plant response rating, Velvetleaf” value [10, 19] was 100, the “Plant response rating, Wheat” value [11, 16] was 0 and the “Wheat plant response rating (0 to 100 scale)” value [11, 17] was 5. The “Plant response rating, Wheat” value [11, 19] was 15, the “Plant response rating, Oat, Wild” value (wild oat (Avena fatua); [16]) was 0 and the “Oat, Wild plant response rating (0 to 100 scale)” value (wild oat (Avena fatua); [17]) was 5. For the same compound, the “Plant response rating, Oat, Wild” value (wild oat (Avena fatua); [19]) was 30, the “Plant response rating, Nutsedge, Yellow” value [12, 16] was 70 and the “Nutsedge, Yellow plant response rating (0 to 100 scale)” value [12, 17] was 70. For the same compound, the “Plant response rating, Nutsedge, Yellow” value [12, 19] was 85, the “Plant response rating, Canarygrass” value [13, 16] was 0 and the “Canarygrass plant response rating (0 to 100 scale)” value [13, 17] was 5. The “Plant response rating, Canarygrass” value [13, 18] was 30, the “Plant response rating, Canarygrass” value [13, 19] was 45 and the “Plant response rating, Chickweed” value [14, 16] was 75. The “Chickweed plant response rating (0 to 100 scale)” value [14, 17] was 95, the “Plant response rating, Chickweed” value [14, 18] was 98 and the “Plant response rating, Chickweed” value [14, 19] was 100. For the same compound, the “Plant response rating, Windgrass” value [15, 16] was 5, the “Windgrass plant response rating (0 to 100 scale)” value [15, 17] was 10 and the “Plant response rating, Windgrass” value [15, 19] was 45.
